In patent US20250073248A1, “BIORESORBABLE CATIONIC STEROIDAL ANTIMICROBIAL COMPOUNDS WITH GLYCERIDE LINKAGES” (BRIGHAM YOUNG UNIVERSITY, priority 2023, published 2025):
In brackets after ≈: the same amount, converted by molar mass.

How the values were obtained:
Type in all cases: cell-based
[1] = system: P. aeruginosa 01 ATCC 47085; test: MIC/MBC of CSA-4110, Gram negative bacteria (Table 3); details: Pseudomonas aeruginosa, ATCC47085
Procedure: (§1) All compounds were screened against these pathogens to determine their minimum inhibitory concentration (MIC), minimum bactericidal concentration (MBC), and minimum fungicidal concentration (MFC) using a broth microdilution method. […] Of these three, only CSA-4110 was similarly active against PA01and CA, inhibiting growth at 8 μg/mL.
(§2) CSA-4110 was evaluated further against a broader range of bacterial and fungal strains. Acinetobacter baumannii and several isolates of Staphylococcus aureus, Klebsiella pneumoniae, and Candida auris were selected, further broadening the coverage of high and critical priority pathogens. Streptococcus uberis, Staphylococcus pseudintermedius, Proteus mirabilis, and Escherichia coli were also screened to obtain a more complete efficacy profile. […] For comparison, previous work established the MICs of CSA-131 against strains of Staphylococcus aureus, Pseudomonas aeruginosa, and Candida albicans at 0.5-2 μg/mL

[2] = system: K. pneumoniae ATCC 13883; test: as above; details: Klebsiella pneumoniae, ATCC13883
Procedure: as §1, §2

[3] = system: C. albicans ATCC 90028; test: MIC/MFC of CSA-4110, fungi (Table 4); details: Candida albicans, ATCC90028
Procedure: as §1, §2

CCCCCCCCCC(=O)OCC(O)COC(=O)CC[C@@H](C)[C@H]1CC[C@H]2[C@@H]3[C@H](OC(=O)CCN)C[C@@H]4C[C@H](OC(=O)CCN)CC[C@]4(C)[C@H]3C[C@H](OC(=O)CCN)[C@]12C (stereo partly drawn) [CSA-4110]
MBC [1]: 8 mg/L | MIC [1]: 4 mg/L | MBC [2]: 2 mg/L | MIC [2]: 2 mg/L | MBC [3]: 16 mg/L (≈ 18.8 µM) | MIC [3]: 4 mg/L (≈ 4.71 µM)
